Measured values reported in patent US20130123271A1, “HETEROCYCLIC COMPOUNDS, THEIR PREPARATION AND THERAPEUTIC APPLICATION” (FOVEA PHARMACEUTICALS, priority 2010, published 2013).

Target: h Src (Homo sapiens, UniProt P12931)
Assay: LC3000 Src assay (off-chip incubation mobility-shift kinase assay, Caliper LabChip)
Assay type: biochemical
Settings: ATP at KM apparent
Method: The screening and profiling experiments described here were performed using Caliper Life Sciences' proprietary LabChip™ technology. Caliper LC3000 and EZ Reader II instruments are widely used throughout the drug discovery process for assay development, primary screening, selectivity screening, generation of Structure-Activity Relationships (SARs) and Mechanism of Action (MOA) studies. The LabChip™ technology is particularly well suited for enzymatic ‘targets’ such as kinases, proteases, phosphatases, histone deacetylases (HDAC), phosphodiesterases (PDE), and acyl-transferases. The key benefit of the technology is the separation and direct measurement of substrates and products, which allows for higher signal-to-noise ratios and fewer false positive/negative results. This direct measurement also allows for the identification and elimination of enzymatic activities that are not associated with the kinase reaction of interest.
The off-chip incubation mobility-shift kinase assay uses a microfluidic chip to measure the conversion of a fluorescent peptide substrate to a phosphorylated product. The reaction mixture, from a microtiter plate well, is introduced through a capillary sipper onto the chip, where the nonphosphorylated substrate and phosphorylated product are separated by electrophoresis and detected via laser-induced fluorescence. […] The phosphorylated product migrates through the chip faster than the non-phosphorylated substrate, and signals from the two forms of the peptide appear as distinct peaks. Caliper's data analysis software (HTSWA) determines peak heights, from which the ratio of product to the peak sum P/(P+S) and percent (%) conversion is calculated. This value is used to compare compound wells to control wells present on the plate, and thereby determine the % inhibition values for the compound. The formula used to calculate % inhibition is as follows, where C100% is the average % conversion of the 100% activity wells and C0% is the average % conversion of the 0% activity wells:
(1-(%conversionofsample—C0%)/(C100%−C0%))*100
Compounds were dissolved in 100% DMSO and diluted to 25× the final desired screening concentration. Serial dilutions were performed to obtain the concentrations specified for particular studies. One μl of each concentration was transferred, in duplicate, to a 384-well Greiner microtiter plate. Generally, 12 μL of enzyme buffer containing purified kinase (various suppliers), 100 mM HEPES, pH 7.5, 1 mM DTT (Calbiochem, 2333153), 10 mM MgCl2 (Sigma, M-1028) or 10 mM MnCl2 (Sigma, M-1787) (assay specific), and 0.002% Brij-35 (Sigma, B4184) was added to each well. Compound and enzyme were allowed to pre-incubate for 15 minutes. 12 μL of peptide/ATP buffer containing 100 mM HEPES, pH 7.5, 1.5 μM fluorescein-labeled peptide (specific to kinase of interest), ATP (at KM apparent, Sigma, A9187), and 0.002% Brij-35 was then added to each well to initiate the reaction. Generally, reactions were incubated for 1-1.5 hours at room temperature to obtain adequate (15-40%) conversion of peptide to phosphorylated product in the linear range of the reaction. Reactions were terminated with the addition of 45 μL of Stop Buffer (containing 20 mM EDTA). Plates were then read on the LabChip 3000 using a 12-sipper LabChip. % conversion values and % inhibition values were obtained as described and IC50 curves of compounds were generated using Graphpad Prism Version 4 or 5.01. A nonlinear curve fit using the sigmoidal dose response—variable slope fit was used to graph IC50 curves and determine IC50 values and hillslopes.

Sequence of h Src (P12931 whole entry): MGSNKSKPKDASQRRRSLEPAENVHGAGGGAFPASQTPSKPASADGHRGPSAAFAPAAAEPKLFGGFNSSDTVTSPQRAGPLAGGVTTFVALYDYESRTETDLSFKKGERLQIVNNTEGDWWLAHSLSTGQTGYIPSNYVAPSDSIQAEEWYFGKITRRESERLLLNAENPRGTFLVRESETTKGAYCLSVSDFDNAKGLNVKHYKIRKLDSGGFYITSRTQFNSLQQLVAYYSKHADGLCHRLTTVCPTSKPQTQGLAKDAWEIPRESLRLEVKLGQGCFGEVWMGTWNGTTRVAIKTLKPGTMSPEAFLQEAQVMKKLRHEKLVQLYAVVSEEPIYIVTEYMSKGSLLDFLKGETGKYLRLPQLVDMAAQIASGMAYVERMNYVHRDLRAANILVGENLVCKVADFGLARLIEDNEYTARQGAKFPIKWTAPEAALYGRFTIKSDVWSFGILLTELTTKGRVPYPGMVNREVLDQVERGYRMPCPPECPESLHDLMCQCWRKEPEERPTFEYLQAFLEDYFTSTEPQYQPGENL

Structure (SMILES)	IC50
Oc1ccc(Cl)c(-c2ccc3nc(Nc4cccnc4)ncc3c2)c1 [Compound 17, 4-Chloro-3-[2-(pyridin-3-ylamino)-quinazolin-6-yl]-phenol]	2 nM
Oc1ccc(Cl)c(-c2ccc3nc(Nc4ccc5cc[nH]c5c4)nn3c2)c1 [Compound 18, 4-Chloro-3-[2-(1H-indol-6-ylamino)-[1,2,4]triazolo[1,5-a]pyridin-6-yl]-phenol]	39 nM
Oc1ccc(Cl)c(-c2ccc3nc(Nc4ccnc(O)c4)nn3c2)c1 [Compound 19, 4-[6-(2-Chloro-5-hydroxy-phenyl)-[1,2,4]triazolo[1,5-a]pyridin-2-ylamino]-pyridin-2-ol]	28 nM
COc1cc(Nc2nc3ccc(-c4cc(O)ccc4Cl)cn3n2)ccn1 [Compound 20, 4-Chloro-3-[2-(2-methoxy-pyridin-4-ylamino)-[1,2,4]triazolo[1,5-a]pyridin-6-yl]-phenol]	6 nM
OCc1cncc(Nc2ncc3cc(-c4cc(O)ccc4Cl)ccc3n2)c1 [Compound 21, 4-Chloro-3-[2-(5-hydroxymethyl-pyridin-3-ylamino)-quinazolin-6-yl]-phenol]	0.4 nM
Oc1ccc(Cl)c(-c2ccc3nc(Nc4cncc(OCCN5CCCC5)c4)nn3c2)c1 [Compound 26, 4-Chloro-3-{2-[5-(2-pyrrolidin-1-yl-ethoxy)-pyridin-3-ylamino]-[1,2,4]triazolo[1,5-a]pyridin-6-yl}-phenol]	14 nM
COc1cc(Nc2nc3ccc(-c4cc(O)ccc4Cl)cn3n2)cc(OC)c1OC [Compound 29, 4-Chloro-3-[2-(3,4,5-trimethoxy-phenylamino)-[1,2,4]triazolo[1,5-a]pyridin-6-yl]-phenol]	2 nM
OCCn1cnc2ccc(Nc3nc4ccc(-c5cc(O)ccc5Cl)cn4n3)cc21 [Compound 30, 4-Chloro-3-{2-[3-(2-hydroxy-ethyl)-3H-benzoimidazol-5-ylamino]-[1,2,4]triazolo[1,5-a]pyridin-6-yl}-phenol]	7 nM
Oc1ccc(Cl)c(-c2ccn3nc(Nc4cccnc4)nc3c2)c1 [Compound 31, 4-Chloro-3-[2-(pyridin-3-ylamino)-[1,2,4]triazolo[1,5-a]pyridin-7-yl]-phenol]	69 nM
Oc1ccc(Cl)c(-c2ccc3nc(Nc4ccnc(OCCN5CCCC5)c4)nn3c2)c1 [Compound 33, 4-Chloro-3-{2-[2-(2-pyrrolidin-1-yl-ethoxy)-pyridin-4-ylamino]-[1,2,4]triazolo[1,5-a]pyridin-6-yl}-phenol]	29 nM
OCc1cc(CO)cc(Nc2nc3cc(-c4cc(O)ccc4Cl)ccn3n2)c1 [Compound 34, 3-[2-(3,5-Bis-hydroxymethyl-phenylamino)-[1,2,4]triazolo[1,5-a]pyridin-7-yl]-4-chloro-phenol]	9 nM
OCc1ccc(Nc2nc3ccc(-c4cc(O)ccc4Cl)cn3n2)cc1CO [Compound 35, 3-[2-(3,4-Bis-hydroxymethyl-phenylamino)-[1,2,4]triazolo[1,5-a]pyridin-6-yI]-4-chloro-phenol]	34 nM
COc1cc(Nc2ncc3cc(-c4cc(O)ccc4Cl)ccc3n2)cc(OC)c1OC [Compound 36, 4-Chloro-3-[2-(3,4,5-trimethoxy-phenylamino)-quinazolin-6-y]-phenol]	0.5 nM
OCCN1CCN(c2cc(Nc3nc4ccc(-c5cc(O)ccc5Cl)cn4n3)ccn2)CC1 [Compound 38, 4-Chloro-3-(2-{2-[4-(2-hydroxy-ethyl)-piperazin-1-yl]-pyridin-4-ylamino}-[1,2,4]triazolo[1,5-a]pyridin-6-yl)-phenol]	13 nM
COc1cc2nc(Nc3ccc(OCCN4CCCC4)cc3)nn2cc1-c1cc(O)ccc1Cl [Compound 39, 4-Chloro-3-{7-methoxy-2-[4-(2-pyrrolidin-1-yl-ethoxy)-phenylamino]-[1,2,4]triazolo[1,5-a]pyridin-6-yl}-phenol]	69 nM
COc1ccc(Nc2ncc3cc(-c4cc(O)ccc4Cl)ccc3n2)cn1 [Compound 40, 4-Chloro-3-[2-(6-methoxy-pyridin-3-ylamino)-quinazolin-6-yl]-phenol]	10 nM
[O-][N+]1(CCOc2ccc(Nc3nc4ccc(-c5cc(O)ccc5Cl)cn4n3)cc2)CCCC1 [Compound 41, 4-Chloro-3-(2-{4-[2-(1-oxy-pyrrolidin-1-yl)-ethoxy]-phenylamino}-[1,2,4]triazolo[1,5-a]pyridin-6-yl)-phenol]	55 nM
Oc1ccc(Cl)c(-c2ccc3nc(Nc4ccc5cc[nH]c5c4)ncc3c2)c1 [Compound 42, 4-Chloro-3-[2-(1 H-indol-6-ylamino)-quinazolin-6-yl]-phenol]	100 nM
O=C1CCCN1CCOc1ccc(Nc2nc3ccc(-c4cc(O)ccc4Cl)cn3n2)cn1 [Compound 44, 1-(2-{5-[6-(2-Chloro-5-hydroxy-phenyl)-[1,2,4]triazolo[1,5-a]pyridin-2-ylamino]-pyridin-2-yloxy}-ethyl)-pyrrolidin-2-one]	57 nM
OCCN1CCN(c2cc(CO)cc(Nc3nc4ccc(-c5cc(O)ccc5Cl)cn4n3)c2)CC1 [Compound 47, 4-Chloro-3-(2-{3-[4-(2-hydroxy-ethyl)-piperazin-1-yl]-5-hydroxymethyl-phenylamino}-[1,2,4]triazolo[1,5-a]pyridin-6-yl)-phenol]	1 nM
Cc1cc(Nc2ncc3cc(-c4cc(OC(=O)c5ccccc5)ccc4Cl)ccc3n2)cc(N2CCN(CCO)CC2)c1 [Compound 49, Benzoic acid 4-chloro-3-(2-{3-[4-(2-hydroxy-ethyl)-piperazin-1-yl]-5-methyl-phenylamino}-quinazolin-6-yl)-phenyl ester]	11 nM
OCCN1CCN(c2cc(CO)cc(Nc3ncc4cc(-c5cc(O)ccc5Cl)ccc4n3)c2)CC1 [Compound 50, 4-Chloro-3-(2-{3-[4-(2-hydroxy-ethyl)-piperazin-1-yl]-5-hydroxymethyl-phenylamino}-quinazolin-6-yl)-phenol]	0.2 nM
Oc1ccc(Cl)c(-c2ccc3nc(Nc4ccncc4)nn3c2)c1 [compound 1, 4-Chloro-3-[2-(pyridin-4-ylamino)-[1,2,4]triazolo[1,5-a]pyridin-6-yl]-phenol]	73 nM
Oc1ccc(Cl)c(-c2ccc3nc(Nc4cccnc4)nn3c2)c1 [compound 2, 4-Chloro-3-[2-(pyridin-3-ylamino)-[1,2,4]triazolo[1,5-a]pyridin-6-yl]-phenol]	120 nM
Oc1ccc(Cl)c(-c2ccc3nc(Nc4cncnc4)nn3c2)c1 [compound 3, 4-Chloro-3-[2-(pyrimidin-5-ylamino)-[1,2,4]triazolo[1,5-a]pyridin-6-yl]-phenol]	150 nM
OCc1cncc(Nc2nc3ccc(-c4cc(O)ccc4Cl)cn3n2)c1 [compound 4, 4-Chloro-3-[2-(5-hydroxymethyl-pyridin-3-ylamino)-[1,2,4]triazolo[1,5-a]pyridin-6-yl]-phenol]	39 nM
COc1ccc(Nc2nc3ccc(-c4cc(O)ccc4Cl)cn3n2)cn1 [compound 7, 4-Chloro-3-[2-(6-methoxy-pyridin-3-ylamino)-[1,2,4]triazolo[1,5-a]pyridin-6-yl]-phenol]	80 nM
Oc1ccc(Cl)c(-c2ccc3nc(Nc4ccc(OCCN5CCCC5)cn4)nn3c2)c1 [compound 8, 4-Chloro-3-{2-[5-(2-pyrrolidin-1-yl-ethoxy)-pyridin-2-ylamino]-[1,2,4]triazolo[1,5-a]pyridin-6-yl}-phenol]	100 nM
Oc1ccc(Cl)c(-c2ccc3nc(Nc4ccccn4)nn3c2)c1 [compound 12, 4-Chloro-3-[2-(pyridin-2-ylamino)-[1,2,4]triazolo[1,5-a]pyridin-6-yl]-phenol]	170 nM
